Columns and labels:
Assay type in all cases: biochemical
PI3kα = PI3kα (Homo sapiens, UniProt P42336); experiment: Fluorescent (HTRF) determination of PI3 kinase enzyme activity, PI3Kα; details: 1 uM
From the text: (§1) Assay 1: Fluorescent Determination of PI3Kinase Kinase Enzyme Activity
(§2) Phosphoinositide 3 kinases (PI3K) belong to a class of lipid kinases that play a critical role in the regulation of several key cellular processes. The PI3K are capable of phosphorylating the 3-hydroxy position of phosphoinositols thereby generating second messengers involved in downstream signalling events. The homogenous time resolved fluorescence (HTRF) assay allows detection of 3,4,5-triphosphate (PIP3) formed as a result of phosphorylation of phosphotidylinositol 4,5-biphosphate (PIP2) by PI3K isoforms such as α, β, γ or δ. PI3K isoform activity for a, p, y or 8 was determined using a PI3K human HTRF™ Assay Kit (Millipore, Billerica, Mass.) with modifications. All incubations were carried out at room temperature. Briefly, 0.5 μl of 40× inhibitor (in 100% DMSO) or 100% DMSO were added to each well of a 384-well black plate (Greiner Bio-One, Monroe, N.C.) containing 14.5 μl IX reaction buffer /PIP2 (10 mM MgCl2, 5 mM DTT, 1.38 μM PIP2) mix with or without enzyme and incubated for 10 min. After the initial incubation, 5 μl/well of 400 μM ATP was added and incubated for an additional 30 minutes. Reaction was terminated by adding 5 μl/well stop solution (Millipore, Billerica, Mass.). Five microliters of detection mix (Millipore, Billerica, Mass.) were then added to each well and was incubated for 6-18 h in the dark. HRTF ratio was measured on a microplate reader (BMG Labtech., Germany) at an excitation wavelength of 337 nm and emission wavelengths of 665 and 620 nm with an integration time of 400 μsec.
(§3) Data were analyzed using Graphpad Prism (Graphpad software; San Diego Calif.) for IC50 determination. Examples 1-59 were tested at 1 uM for Pi3kα & Pi3k β and at 0.3 uM for γ and δ. Examples 60-137 were tested at 1 uM for Pi3kα & Pi3k β and at 0.1 uM for γ and δ. Percent inhibition was calculated based on the values for the blank and enzyme controls. The results are as provided in Table 2 (wherein D=0 to 25%; C=>25 to 50%; B=>50 to 75%; A=>75 to 100%; +++++=≤50 nM; ++++=>50 to ≤100 nM; +++=>100 to ≤300 nM; ++=>300 to ≤500 nM; +=>500 nM)

PI3kδ = PI3kδ (Homo sapiens, UniProt O00329); experiment: Fluorescent (HTRF) determination of PI3 kinase enzyme activity, PI3Kδ; details: for inhibition at 0.3 µM: 300 nM (Examples 1-59); for % inhibition (PI3kδ) 100 nM / inhibition at 0.1 µM: 100 nM (Examples 60-137)
From the text: as §1, §2, §3

PI3kβ = PI3kβ (Homo sapiens, UniProt P42338); experiment: Fluorescent (HTRF) determination of PI3 kinase enzyme activity, PI3Kβ; details: 1 uM
From the text: as §1, §2, §3

PI3kγ = PI3kγ (Homo sapiens, UniProt P48736); experiment: Fluorescent (HTRF) determination of PI3 kinase enzyme activity, PI3Kγ; details: for inhibition at 0.3 µM: 300 nM (Examples 1-59); for % inhibition (PI3kγ) 100 nM / inhibition at 0.1 µM: 100 nM (Examples 60-137); for % inhibition (PI3kγ) 100 nM: 0.1 µM
From the text: as §1, §2, §3

Chain of PI3kβ (P42338 whole entry): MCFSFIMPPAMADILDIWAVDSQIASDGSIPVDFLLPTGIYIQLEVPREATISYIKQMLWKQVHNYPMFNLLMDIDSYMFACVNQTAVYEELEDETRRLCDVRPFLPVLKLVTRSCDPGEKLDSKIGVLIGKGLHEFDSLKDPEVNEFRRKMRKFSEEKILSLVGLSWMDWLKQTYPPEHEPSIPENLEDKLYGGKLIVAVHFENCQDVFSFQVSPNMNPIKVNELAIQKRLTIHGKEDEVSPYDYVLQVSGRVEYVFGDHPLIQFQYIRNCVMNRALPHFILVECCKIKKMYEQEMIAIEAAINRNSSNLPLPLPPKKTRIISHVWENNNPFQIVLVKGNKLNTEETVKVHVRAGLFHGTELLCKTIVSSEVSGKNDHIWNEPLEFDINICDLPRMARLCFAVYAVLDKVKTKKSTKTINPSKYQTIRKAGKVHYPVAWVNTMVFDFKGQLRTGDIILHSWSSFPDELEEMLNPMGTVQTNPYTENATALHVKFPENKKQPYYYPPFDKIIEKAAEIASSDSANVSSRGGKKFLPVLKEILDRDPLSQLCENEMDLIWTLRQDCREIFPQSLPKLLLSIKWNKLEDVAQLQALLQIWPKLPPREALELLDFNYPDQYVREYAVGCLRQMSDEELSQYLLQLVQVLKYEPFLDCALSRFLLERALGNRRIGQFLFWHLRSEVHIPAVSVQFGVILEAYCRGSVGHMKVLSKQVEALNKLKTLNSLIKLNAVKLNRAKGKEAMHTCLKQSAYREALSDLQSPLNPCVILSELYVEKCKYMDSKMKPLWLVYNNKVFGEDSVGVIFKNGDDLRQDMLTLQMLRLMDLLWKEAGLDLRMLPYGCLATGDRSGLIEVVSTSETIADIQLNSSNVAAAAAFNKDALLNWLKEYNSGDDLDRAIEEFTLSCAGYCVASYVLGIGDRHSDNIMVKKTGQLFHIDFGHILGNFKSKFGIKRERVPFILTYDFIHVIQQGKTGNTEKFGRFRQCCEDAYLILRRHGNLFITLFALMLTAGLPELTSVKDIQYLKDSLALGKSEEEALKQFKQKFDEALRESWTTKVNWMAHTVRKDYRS
Chain of PI3kβ (P27986 whole entry partner): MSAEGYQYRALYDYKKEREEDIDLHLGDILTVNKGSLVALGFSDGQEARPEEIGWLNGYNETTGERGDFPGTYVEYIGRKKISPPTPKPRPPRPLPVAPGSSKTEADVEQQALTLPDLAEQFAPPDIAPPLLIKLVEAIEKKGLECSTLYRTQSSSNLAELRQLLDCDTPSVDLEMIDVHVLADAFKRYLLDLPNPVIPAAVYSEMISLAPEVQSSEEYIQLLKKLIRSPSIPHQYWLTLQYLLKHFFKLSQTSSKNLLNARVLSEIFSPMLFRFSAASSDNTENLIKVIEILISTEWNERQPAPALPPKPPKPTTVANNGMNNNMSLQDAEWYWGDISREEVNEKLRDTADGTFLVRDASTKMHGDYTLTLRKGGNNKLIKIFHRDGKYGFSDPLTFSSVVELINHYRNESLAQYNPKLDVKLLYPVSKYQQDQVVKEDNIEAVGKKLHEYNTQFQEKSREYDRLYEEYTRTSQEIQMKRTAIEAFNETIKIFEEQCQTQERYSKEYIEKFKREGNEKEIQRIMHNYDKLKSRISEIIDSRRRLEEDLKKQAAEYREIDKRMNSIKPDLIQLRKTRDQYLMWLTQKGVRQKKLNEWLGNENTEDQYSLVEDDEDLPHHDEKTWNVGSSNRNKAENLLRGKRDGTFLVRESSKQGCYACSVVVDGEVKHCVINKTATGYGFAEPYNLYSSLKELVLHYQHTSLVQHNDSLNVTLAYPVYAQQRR
Chain of PI3kδ (O00329 whole entry): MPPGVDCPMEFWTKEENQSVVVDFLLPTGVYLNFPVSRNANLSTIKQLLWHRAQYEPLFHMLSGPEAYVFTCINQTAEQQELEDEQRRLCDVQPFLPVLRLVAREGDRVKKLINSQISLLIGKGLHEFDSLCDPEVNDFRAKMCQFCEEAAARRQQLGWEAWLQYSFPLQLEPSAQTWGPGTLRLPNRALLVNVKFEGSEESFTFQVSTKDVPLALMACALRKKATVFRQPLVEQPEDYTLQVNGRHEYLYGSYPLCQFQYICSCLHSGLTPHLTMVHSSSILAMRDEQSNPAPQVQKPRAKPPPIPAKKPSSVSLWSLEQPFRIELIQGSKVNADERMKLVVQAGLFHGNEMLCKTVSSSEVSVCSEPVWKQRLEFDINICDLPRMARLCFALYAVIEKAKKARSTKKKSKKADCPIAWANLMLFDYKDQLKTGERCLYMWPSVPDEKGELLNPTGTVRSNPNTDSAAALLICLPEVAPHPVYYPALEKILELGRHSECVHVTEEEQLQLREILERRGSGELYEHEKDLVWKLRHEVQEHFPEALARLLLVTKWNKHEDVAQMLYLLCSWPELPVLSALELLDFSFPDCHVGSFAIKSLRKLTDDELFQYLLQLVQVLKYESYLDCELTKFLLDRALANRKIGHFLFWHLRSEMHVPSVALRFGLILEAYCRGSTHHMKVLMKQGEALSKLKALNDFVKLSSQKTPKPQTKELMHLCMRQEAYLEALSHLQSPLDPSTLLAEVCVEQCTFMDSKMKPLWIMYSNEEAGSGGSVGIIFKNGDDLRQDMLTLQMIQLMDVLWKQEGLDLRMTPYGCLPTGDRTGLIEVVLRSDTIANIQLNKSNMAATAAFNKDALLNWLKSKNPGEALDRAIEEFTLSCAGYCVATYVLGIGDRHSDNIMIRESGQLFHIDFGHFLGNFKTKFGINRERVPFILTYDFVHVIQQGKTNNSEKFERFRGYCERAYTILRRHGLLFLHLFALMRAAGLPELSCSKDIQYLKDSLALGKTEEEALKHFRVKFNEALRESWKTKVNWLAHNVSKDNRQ
Chain of PI3kδ (P27986 whole entry partner): as the sequence (P27986 whole entry partner) above
Chain of PI3kγ (P48736 whole entry): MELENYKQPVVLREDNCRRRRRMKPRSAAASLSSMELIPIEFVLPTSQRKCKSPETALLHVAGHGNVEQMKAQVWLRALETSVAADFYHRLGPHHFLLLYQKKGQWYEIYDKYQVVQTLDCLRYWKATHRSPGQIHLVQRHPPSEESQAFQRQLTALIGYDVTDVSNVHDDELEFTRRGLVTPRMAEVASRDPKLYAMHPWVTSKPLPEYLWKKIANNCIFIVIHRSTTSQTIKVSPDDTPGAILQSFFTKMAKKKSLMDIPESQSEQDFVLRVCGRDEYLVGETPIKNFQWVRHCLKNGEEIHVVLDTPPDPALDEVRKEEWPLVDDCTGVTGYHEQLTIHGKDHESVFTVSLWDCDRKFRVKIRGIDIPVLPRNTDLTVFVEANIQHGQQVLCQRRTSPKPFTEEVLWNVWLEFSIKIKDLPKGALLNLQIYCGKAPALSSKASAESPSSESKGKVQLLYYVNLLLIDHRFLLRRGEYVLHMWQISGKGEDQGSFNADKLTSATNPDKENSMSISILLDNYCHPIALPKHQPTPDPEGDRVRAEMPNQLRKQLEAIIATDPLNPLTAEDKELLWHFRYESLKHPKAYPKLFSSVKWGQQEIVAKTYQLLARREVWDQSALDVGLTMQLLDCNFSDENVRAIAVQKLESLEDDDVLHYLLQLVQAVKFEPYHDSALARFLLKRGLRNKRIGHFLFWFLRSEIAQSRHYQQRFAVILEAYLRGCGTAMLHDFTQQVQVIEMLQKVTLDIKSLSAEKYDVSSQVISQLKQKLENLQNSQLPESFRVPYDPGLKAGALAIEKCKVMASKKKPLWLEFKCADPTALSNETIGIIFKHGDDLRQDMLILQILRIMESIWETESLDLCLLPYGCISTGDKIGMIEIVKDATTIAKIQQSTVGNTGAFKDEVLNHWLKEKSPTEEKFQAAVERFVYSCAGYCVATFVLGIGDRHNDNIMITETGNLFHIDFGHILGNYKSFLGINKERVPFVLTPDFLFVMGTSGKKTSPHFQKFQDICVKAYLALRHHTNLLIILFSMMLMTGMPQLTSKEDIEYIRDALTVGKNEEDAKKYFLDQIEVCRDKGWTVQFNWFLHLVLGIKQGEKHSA
Chain of PI3kα (P42336 whole entry): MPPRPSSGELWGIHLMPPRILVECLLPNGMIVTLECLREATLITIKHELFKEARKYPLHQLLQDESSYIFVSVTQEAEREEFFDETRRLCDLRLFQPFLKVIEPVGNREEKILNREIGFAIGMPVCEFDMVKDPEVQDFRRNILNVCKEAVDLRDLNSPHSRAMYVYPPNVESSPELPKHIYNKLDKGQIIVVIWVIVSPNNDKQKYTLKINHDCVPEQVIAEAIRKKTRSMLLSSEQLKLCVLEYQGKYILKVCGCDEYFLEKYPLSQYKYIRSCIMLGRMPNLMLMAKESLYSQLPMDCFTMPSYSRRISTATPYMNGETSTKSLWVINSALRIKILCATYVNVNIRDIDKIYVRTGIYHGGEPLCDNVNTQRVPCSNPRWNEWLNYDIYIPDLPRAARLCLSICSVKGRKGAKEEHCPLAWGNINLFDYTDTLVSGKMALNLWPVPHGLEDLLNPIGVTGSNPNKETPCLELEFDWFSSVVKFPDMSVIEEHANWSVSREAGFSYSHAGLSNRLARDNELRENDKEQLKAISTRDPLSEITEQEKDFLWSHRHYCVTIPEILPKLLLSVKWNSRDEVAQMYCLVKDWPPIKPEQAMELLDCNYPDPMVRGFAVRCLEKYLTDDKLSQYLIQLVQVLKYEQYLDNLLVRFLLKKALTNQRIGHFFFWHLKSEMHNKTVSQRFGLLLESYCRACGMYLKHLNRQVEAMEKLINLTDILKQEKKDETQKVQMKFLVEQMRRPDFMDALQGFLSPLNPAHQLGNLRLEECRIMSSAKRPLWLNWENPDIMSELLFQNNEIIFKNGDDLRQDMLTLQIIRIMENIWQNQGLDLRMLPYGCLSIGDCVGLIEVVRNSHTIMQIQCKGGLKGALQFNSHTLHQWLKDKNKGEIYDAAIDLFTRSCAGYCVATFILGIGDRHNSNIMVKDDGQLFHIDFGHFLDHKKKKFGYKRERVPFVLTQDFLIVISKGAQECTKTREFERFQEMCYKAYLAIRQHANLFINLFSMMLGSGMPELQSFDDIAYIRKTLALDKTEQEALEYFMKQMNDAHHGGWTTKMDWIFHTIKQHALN
Chain of PI3kα (P27986 whole entry partner): as the sequence (P27986 whole entry partner) above

inhibition at 1 µM (PI3kα) | inhibition at 0.3 µM (PI3kδ) | inhibition at 1 µM (PI3kβ) | inhibition at 0.3 µM (PI3kγ) | % inhibition (PI3kα) 1 uM (PI3kα) | % inhibition (PI3kδ) 100 nM (PI3kδ; 0.1 µM) | % inhibition (PI3kβ) 1 uM (PI3kβ) | % inhibition (PI3kγ) 100 nM (PI3kγ) | IC50 (PI3kδ) | IC50 (PI3kγ) | inhibition at 0.1 µM (PI3kδ) | inhibition at 0.1 µM (PI3kγ) | % inhibition (PI3kδ) 100 nM (PI3kδ) | Structure (SMILES)
25 to 50% | 25 to 50% | 50 to 75% | 0 to 25% | – | – | – | – | – | – | – | – | – | CC(c1oc2cccc(F)c2c(=O)c1-c1cccc(F)c1)n1nc(N2CCCCC2)c2c(N)ncnc21 (stereo not drawn) [Example 39, 2-(1-(4-amino-3-(piperidin-1-yl)-1H-pyrazolo[3,4-d]pyrimidin-1-yl)ethyl)-5-fluoro-3-(3-fluorophenyl)-4H-chromen-4-one]
25 to 50% | 50 to 75% | 25 to 50% | 0 to 25% | – | – | – | – | – | – | – | – | – | CC(c1oc2cccc(F)c2c(=O)c1-c1cccc(F)c1)n1nc(N(C)C)c2c(N)ncnc21 (stereo not drawn) [Example 38, 2-(1-(4-amino-3-(dimethylamino)-1H-pyrazolo[3,4-d]pyrimidin-1-yl)ethyl)-5-fluoro-3-(3-fluorophenyl)-4H-chromen-4-one]
– | – | – | – | C (C=>25 to 50%) | C (C=>25 to 50%) | D (D=0 to 25%) | C (C=>25 to 50%) | – | – | – | – | – | Cc1cc(-c2nn(C(C)c3oc4cccc(F)c4c(=O)c3-c3cccc(F)c3)c3ncnc(N)c23)ccc1OC(C)C (single isomer, unassigned; (-)) [Example 115, (−) 2-(1-(4-amino-3-(4-isopropoxy-3-methylphenyl)-1H-pyrazolo[3,4-d]pyrimidin-1-yl)ethyl)-5-fluoro-3-(3-fluorophenyl)-4H-chromen-4-one]
0 to 25% | – | 25 to 50% | – | – | A (A=>75 to 100%) | – | B (B=>50 to 75%) | ≤ 50 nM | 50 to 100 nM | – | – | – | CC(c1oc2cccc(F)c2c(=O)c1-c1cccc(F)c1)n1cnc2c(N(C)C)ncnc21 (stereo not drawn) [Example 110, 2-(1-(6-(dimethylamino)-9H-purin-9-yl)ethyl)-5-fluoro-3-(3-fluorophenyl)-4H-chromen-4-one]
– | – | – | – | B (B=>50 to 75%) | – | B (B=>50 to 75%) | – | 100 to 300 nM | 50 to 100 nM | 25 to 50% | 50 to 75% | – | CC(C)Oc1ccc(-c2nn(C(C)c3oc4cccc(F)c4c(=O)c3-c3ccccc3)c3ncnc(N)c23)cc1F (racemic) [Example 100, (S)/(R)-2-(1-(4-amino-3-(3-fluoro-4-isopropoxyphenyl)-1H-pyrazolo[3,4-d]pyrimidin-1-yl)ethyl)-5-fluoro-3-phenyl-4H-chromen-4-one]
25 to 50% | – | 25 to 50% | – | – | – | – | – | – | – | 0 to 25% | 50 to 75% | – | CCC(Nc1ncnc2[nH]cnc12)c1oc2cccc(F)c2c(=O)c1-c1ccccc1 (stereo not drawn) [Example 65, 2-(1-(9H-purin-6-ylamino)propyl)-5-fluoro-3-phenyl-4H-chromen-4-one]
– | – | 25 to 50% | – | C (C=>25 to 50%) | – | – | – | – | – | 25 to 50% | 25 to 50% | – | CC(C)Oc1ccc(-c2nn(C(C)c3oc4cccc(F)c4c(=O)c3-c3ccc(F)cc3)c3ncnc(N)c23)cc1F (racemic) [Example 94, (S)/(R)-2-(1-(4-amino-3-(3-fluoro-4-isopropoxyphenyl)-1H-pyrazolo[3,4-d]pyrimidin-1-yl)ethyl)-5-fluoro-3-(4-fluorophenyl)-4H-chromen-4-one]
0 to 25% | 50 to 75% | 25 to 50% | 50 to 75% | – | – | – | – | – | – | – | – | – | CCc1nn(C(C)c2oc3cccc(F)c3c(=O)c2-c2cccc(F)c2)c2ncnc(N)c12 (stereo not drawn) [Example 34, 2-(1-(4-amino-3-ethyl-1H-pyrazolo[3,4-d]pyrimidin-1-yl)ethyl)-5-fluoro-3-(3-fluorophenyl)-4H-chromen-4-one]
– | – | 50 to 75% | – | C (C=>25 to 50%) | – | – | – | ≤ 50 nM | ≤ 50 nM | – | – | – | CC(C)Oc1ccc(-c2nn(C(C)c3oc4cccc(F)c4c(=O)c3-c3cccc(F)c3)c3ncnc(N)c23)cc1F (single isomer, unassigned; (+)) [Example 7, (+)-2-(1-(4-amino-3-(3-fluoro-4-isopropoxyphenyl)-1H-pyrazolo[3,4-d]pyrimidin-1-yl)ethyl)-5-fluoro-3-(3-fluorophenyl)-4H-chromen-4-one]
– | – | – | – | C (C=>25 to 50%) | – | D (D=0 to 25%) | B (B=>50 to 75%) | ≤ 50 nM | 50 to 100 nM | 50 to 75% | – | – | CC(c1oc2cccc(F)c2c(=O)c1-c1cccc(F)c1)n1nc(-c2ccc(N3CCOCC3)c(Cl)c2)c2c(N)ncnc21 (stereo not drawn) [Example 113, 2-(1-(4-amino-3-(3-chloro-4-morpholinophenyl)-1H-pyrazolo[3,4-d]pyrimidin-1-yl)ethyl)-5-fluoro-3-(3-fluorophenyl)-4H-chromen-4-one]
– | – | – | – | D (D=0 to 25%) | – | C (C=>25 to 50%) | D (D=0 to 25%) | – | – | – | – | B (B=>50 to 75%) | CC(c1oc2cccc(F)c2c(=O)c1-c1cccc(F)c1)n1nc(-c2ccc(N3CCOCC3)c(Cl)c2)c2c(N)ncnc21 (racemic) [Example 126, (S)/(R)-2-(1-(4-amino-3-(3-chloro-4-morpholinophenyl)-1H-pyrazolo[3,4-d]pyrimidin-1-yl)ethyl)-5-fluoro-3-(3-fluorophenyl)-4H-chromen-4-one]
25 to 50% | – | 0 to 25% | – | – | – | – | – | – | – | 25 to 50% | 25 to 50% | – | Cc1nc2ccc(-c3nn(C(C)c4oc5cccc(F)c5c(=O)c4-c4cccc(F)c4)c4ncnc(N)c34)cc2o1 (stereo not drawn) [Example 118, 2-(1-(4-amino-3-(2-methylbenzo[d]oxazol-6-yl)-1H-pyrazolo[3,4-d]pyrimidin-1-yl)ethyl)-5-fluoro-3-(3-fluorophenyl)-4H-chromen-4-one]
25 to 50% | 75 to 100% | 25 to 50% | 75 to 100% | – | – | – | – | ≤ 50 nM | 50 to 100 nM | – | – | – | Cc1n[nH]c2cc(-c3nn(C(C)c4oc5cccc(F)c5c(=O)c4-c4cccc(F)c4)c4ncnc(N)c34)ccc12 (stereo not drawn) [Example 9, 2-(1-(4-amino-3-(3-methyl-1H-indazol-6-yl)-1H-pyrazolo[3,4-d]pyrimidin-1-yl)ethyl)-5-fluoro-3-(3-fluorophenyl)-4H-chromen-4-one]
0 to 25% | – | 25 to 50% | – | – | – | – | – | – | – | 0 to 25% | 25 to 50% | – | CC(c1oc2cccc(F)c2c(=O)c1-c1ccc(F)cc1)n1cnc2c(N)nc(F)nc21 (stereo not drawn) [Example 107, 2-(1-(6-amino-2-fluoro-9H-purin-9-yl)ethyl)-5-fluoro-3-(4-fluorophenyl)-4H-chromen-4-one]
25 to 50% | – | 50 to 75% | – | – | – | – | – | 50 to 100 nM | 50 to 100 nM | 50 to 75% | 25 to 50% | – | CC(c1oc2cccc(F)c2c(=O)c1-c1cccc(F)c1)n1nc(-c2cccc(NS(C)(=O)=O)c2)c2c(N)ncnc21 (stereo not drawn) [Example 128, N-(3-(4-amino-1-(1-(5-fluoro-3-(3-fluorophenyl)-4-oxo-4H-chromen-2-yl)ethyl)-1H-pyrazolo[3,4-d]pyrimidin-3-yl)phenyl)methanesulfonamide]
25 to 50% | 25 to 50% | 0 to 25% | 0 to 25% | – | – | – | – | – | – | – | – | – | CC(c1oc2cccc(F)c2c(=O)c1-c1ccc(F)cc1)n1ncc2c(N)ncnc21 (stereo not drawn) [Example 30, 2-(1-(4-amino-1H-pyrazolo[3,4-d]pyrimidin-1-yl)ethyl)-5-fluoro-3-(4-fluorophenyl)-4H-chromen-4-one]
0 to 25% | 50 to 75% | 25 to 50% | 50 to 75% | – | – | – | – | – | – | – | – | – | Cc1nn(C(C)c2oc3cccc(F)c3c(=O)c2-c2cccc(F)c2)c2ncnc(N)c12 (stereo not drawn) [Example 33, 2-(1-(4-amino-3-methyl-1H-pyrazolo[3,4-d]pyrimidin-1-yl)ethyl)-5-fluoro-3-(3-fluorophenyl)-4H-chromen-4-one]
25 to 50% | 50 to 75% | 0 to 25% | 50 to 75% | – | – | – | – | 50 to 100 nM | 100 to 300 nM | – | – | – | CC(C)Oc1ccc(-c2nn(Cc3oc4cccc(F)c4c(=O)c3-c3cccc(F)c3)c3ncnc(N)c23)cc1F [Example 3, 2-((4-amino-3-(3-fluoro-4-isopropoxyphenyl)-1H-pyrazolo[3,4-d]pyrimidin-1-yl)methyl)-5-fluoro-3-(3-fluorophenyl)-4H-chromen-4-one]
